Experimental data: patent publication US20260306428A1 (The Trustees of Indiana University, priority 2023, published 2026)

Legend:
[1] = tested on: caspase 3/7; test: Apoptosis via activated caspase 3/7 signalling (CellEvent) in sublethally impacted cartilage explants; format: cell-based, bovine; conditions: sublethal impact, 24 hr post-impact
Excerpt: (§1) Bovine cartilage explants were impacted with sublethal force to evaluate the injury response in viable chondrocytes.
(§2) Apoptosis and Oxidative Stress: Cartilage was removed from subchondral bone and stained for apoptosis via activated caspase 3/7signalling (CellEvent, Invitrogen) or ROS (CellRox, Invitrogen) 24 hr post-impact, as shown in FIG. 1A and FIG. 1B, respectively.

[2] = tested on: reactive oxygen species (ROS); test: Oxidative stress / ROS staining (CellRox) in sublethally impacted cartilage explants; format: cell-based, bovine; conditions: sublethal impact, 24 hr post-impact, 10 mM
Excerpt: as §1, §2

[3] = tested on: impacted chondrocytes; test: Chondrocyte viability by live/dead staining in impacted cartilage; format: cell-based, bovine; conditions: for rescue of chondrocyte viability following AMD: AMPK activation (EX229 1 μM and 10 μM) or SIRT1 activation (SRT1720 1 μM and 5 μM); for prevention of impact-induced chondrocyte death: EX229 1 μM and 10 μM, SRT1720 1 μM and 5 μM
Method: Bovine cartilage was cultured with metformin following an impact from a drop tower device.
As a preliminary assessment, live/dead staining was evaluated in impacted bovine cartilage treated with specific pharmacological activators of AMPK and SIRT1 or left untreated with appropriate vehicle (DMSO).
One half of the explant was assessed for cell viability via live/dead staining, and the other half was stained with MitoTracker Green and TMRM to evaluate mitochondrial health.

[4] = tested on: mitochondria in chondrocytes; test: Mitochondrial function (TMRM / MitoTracker Green red:green ratio) in cartilage explants; format: cell-based, bovine
[5] = oral, anti-diabetic treatment; cited from earlier work
[6] = tested on: AMPK; conditions: role: activator; cited from earlier work
[7] = tested on: SIRT1; conditions: role: activator; cited from earlier work
[8] = tested on: Complex I; conditions: role: inhibitor; cited from earlier work
[9] = cited from earlier work
[10] = tested on: Complex I; conditions: in vivo; cited from earlier work
[11] = impacted, EX229 1 μM and 10 μM (FIG. 4A), SRT1720 1 μM and 5 μM (FIG. 4B)

CN(C)C(=N)NC(=N)N.Cl [metformin, 1,1-dimethylbiguanide hydrochloride]
apoptotic signalling (caspase 3/7) ([1]; 1 mM): only partially reduced apoptotic signalling | apoptosis (caspase 3/7 signalling) ([1]; 1 mM, 5 mM and 10 mM): dose-dependent decrease | apoptosis (caspase 3/7) ([1]; 10 mM): completely suppressed apoptosis | oxidative stress (ROS) [2]: full suppression of oxidative stress | cell viability (live/dead staining) ([3]; drop tower impact, 24 hr post-impact, 10 mM): improved cell viability | cell viability (live/dead staining) ([3]; drop tower impact, 24 hr post-impact, 50 mM): completely rescue impacted chondrocytes | cell viability (live/dead staining), data not shown ([3]; impacted bovine cartilage, 125 mM, trends similar to mitochondrial function): showed similar trends | mitochondrial dysfunction in impacted chondrocytes ([4]; impacted explants, 24 hours post-impact, 10 mM and 50 mM): rescues mitochondrial dysfunction in impacted chondrocytes in a dose-dependent manner | mitochondrial function of impacted chondrocytes ([4]; impacted, 125 mM, vs untreated impacted chondrocytes): not significantly different from that of untreated impacted chondrocytes | mitochondrial function of non-impacted chondrocytes ([4]; non-impacted, 125 mM): slightly declined | side effects [5]: nausea, vomiting, diarrhoea, and stomach pain | activation of AMPK [6]: activates AMPK | activation of SIRT1 [7]: activates AMPK and SIRT1 | inhibition of Complex I [8]: inhibiting Complex I

Cc1ccc(Oc2nc3cc(-c4ccc5c(ccn5C)c4)c(Cl)cc3[nH]2)cc1C(=O)O [EX229]
rescue of chondrocyte viability following AMD ([3]; impacted): rescues the AMD-induced decrease in chondrocyte viability | cell viability (live/dead staining) [3, 11]: improved cell viability in impacted chondrocytes in a dose-dependent manner | prevention of impact-induced chondrocyte death ([3]; impacted): neither of these activators completely prevented impact-induced chondrocyte death | solubility in aqueous solutions [9]: low solubility

CCC1(CCC(C)C)C(=O)NC(=O)NC1=O [amobarbital]
block of mitochondrial electron transport at complex I [10]: blocks mitochondrial electron transport at complex I to prevent chondrocyte dysfunction and apoptosis

O=C(Nc1ccccc1-c1cn2c(CN3CCNCC3)csc2n1)c1cnc2ccccc2n1 [SRT1720]
rescue of chondrocyte viability following AMD ([3]; impacted): rescues chondrocyte viability following AMD | cell viability (live/dead staining) [3, 11]: improved cell viability in impacted chondrocytes in a dose-dependent manner | prevention of impact-induced chondrocyte death ([3]; impacted): neither of these activators completely prevented impact-induced chondrocyte death | solubility in aqueous solutions [9]: low solubility
